Drawing on paper PMC5108454 (Cell metabolism, 2016), this text covers Ki and Km for two compounds.

For assay [1], the target named is T1, Sdh (succinate dehydrogenase; complex II) (Mus musculus, UniProt Q8K2B3). The assay can be described thus: complex II enzyme activity microplate assay, Dixon plot. Format: biochemical.
Assay [2] addresses T1, Sdh (succinate dehydrogenase; complex II). Nature of the assay: complex II enzyme activity microplate assay, Lineweaver-Burk plot. It counts as biochemical. The conditions noted are these: sodium succinate hexahydrate varied in activity buffer with phospholipid mixture.

T1 sequence (Q8K2B3 43-664): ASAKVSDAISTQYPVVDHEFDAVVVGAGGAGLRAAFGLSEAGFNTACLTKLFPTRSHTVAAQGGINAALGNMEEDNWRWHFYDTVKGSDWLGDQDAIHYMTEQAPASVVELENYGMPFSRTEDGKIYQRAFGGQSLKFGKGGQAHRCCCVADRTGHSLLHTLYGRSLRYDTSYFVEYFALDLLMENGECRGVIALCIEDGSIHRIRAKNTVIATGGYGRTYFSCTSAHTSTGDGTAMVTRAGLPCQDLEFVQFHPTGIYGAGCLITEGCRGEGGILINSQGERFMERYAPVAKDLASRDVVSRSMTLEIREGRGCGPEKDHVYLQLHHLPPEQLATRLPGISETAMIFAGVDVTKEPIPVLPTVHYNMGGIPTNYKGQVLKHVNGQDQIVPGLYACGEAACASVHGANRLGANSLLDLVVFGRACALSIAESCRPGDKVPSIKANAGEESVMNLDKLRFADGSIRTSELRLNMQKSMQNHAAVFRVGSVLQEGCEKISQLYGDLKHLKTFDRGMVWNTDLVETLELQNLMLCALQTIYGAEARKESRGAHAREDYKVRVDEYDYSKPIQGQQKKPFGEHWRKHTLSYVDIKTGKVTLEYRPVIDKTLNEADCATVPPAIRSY
T1 sequence (Q9CQA3 31-282 partner): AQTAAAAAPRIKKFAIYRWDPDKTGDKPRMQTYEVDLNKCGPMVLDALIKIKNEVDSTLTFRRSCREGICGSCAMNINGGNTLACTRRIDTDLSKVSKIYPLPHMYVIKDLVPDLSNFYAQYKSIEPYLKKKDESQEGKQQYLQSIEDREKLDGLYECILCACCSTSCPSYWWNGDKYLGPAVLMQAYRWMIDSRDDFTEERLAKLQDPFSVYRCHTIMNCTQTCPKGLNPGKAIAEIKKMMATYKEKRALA
T1 sequence (Q9CZB0 30-169 partner): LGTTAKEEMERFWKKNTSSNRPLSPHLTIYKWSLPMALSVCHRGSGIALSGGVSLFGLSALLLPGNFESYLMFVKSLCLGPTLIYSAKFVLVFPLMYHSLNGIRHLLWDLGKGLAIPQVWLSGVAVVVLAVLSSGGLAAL
T1 sequence (Q9CXV1 57-159 partner): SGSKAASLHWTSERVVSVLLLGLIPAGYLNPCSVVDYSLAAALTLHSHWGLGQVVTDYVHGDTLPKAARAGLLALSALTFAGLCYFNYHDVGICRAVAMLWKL

On to `C=C(CC(=O)O)C(=O)O` [itaconate], for which affinity in assay [1] was put at a Ki of 220 µM.
Consider `O=C(O)CCC(=O)O` [succinate], for which the Michaelis-Menten constant (Km) (in general, the concentration of substrate that gives half-maximal velocity) in assay [2] was 290 ± 800 µM.
